How the values were obtained:
CYP1A2 [1] = biological target: T1, CYP1A2 (Homo sapiens, UniProt P05177); assay: Induction of CYP1A2 in human hepatocytes at 1000 uM after 72 hrs relative to control; format: ADME, cell-based, Hepatocyte; conditions: read-out: FC
T1 sequence (P05177 whole entry): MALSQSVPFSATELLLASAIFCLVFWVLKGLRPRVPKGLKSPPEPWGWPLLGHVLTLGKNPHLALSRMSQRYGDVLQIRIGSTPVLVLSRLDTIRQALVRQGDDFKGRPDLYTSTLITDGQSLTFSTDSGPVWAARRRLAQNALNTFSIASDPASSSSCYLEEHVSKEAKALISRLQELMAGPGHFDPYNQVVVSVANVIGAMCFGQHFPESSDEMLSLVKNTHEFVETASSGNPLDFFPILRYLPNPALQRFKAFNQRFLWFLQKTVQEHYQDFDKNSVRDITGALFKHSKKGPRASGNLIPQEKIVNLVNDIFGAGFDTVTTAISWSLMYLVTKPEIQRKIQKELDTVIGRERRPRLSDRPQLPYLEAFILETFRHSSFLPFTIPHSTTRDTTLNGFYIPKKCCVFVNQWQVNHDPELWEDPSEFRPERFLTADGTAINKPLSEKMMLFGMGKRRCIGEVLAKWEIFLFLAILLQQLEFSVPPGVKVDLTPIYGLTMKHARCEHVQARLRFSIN

CYP2B6 [2] = biological target: T2, CYP2B6 (Homo sapiens, UniProt P20813); assay: Induction of CYP2B6 in human hepatocytes at 1000 uM after 72 hrs relative to control; format: ADME, cell-based, Hepatocyte; conditions: read-out: FC
T2 sequence (P20813 whole entry): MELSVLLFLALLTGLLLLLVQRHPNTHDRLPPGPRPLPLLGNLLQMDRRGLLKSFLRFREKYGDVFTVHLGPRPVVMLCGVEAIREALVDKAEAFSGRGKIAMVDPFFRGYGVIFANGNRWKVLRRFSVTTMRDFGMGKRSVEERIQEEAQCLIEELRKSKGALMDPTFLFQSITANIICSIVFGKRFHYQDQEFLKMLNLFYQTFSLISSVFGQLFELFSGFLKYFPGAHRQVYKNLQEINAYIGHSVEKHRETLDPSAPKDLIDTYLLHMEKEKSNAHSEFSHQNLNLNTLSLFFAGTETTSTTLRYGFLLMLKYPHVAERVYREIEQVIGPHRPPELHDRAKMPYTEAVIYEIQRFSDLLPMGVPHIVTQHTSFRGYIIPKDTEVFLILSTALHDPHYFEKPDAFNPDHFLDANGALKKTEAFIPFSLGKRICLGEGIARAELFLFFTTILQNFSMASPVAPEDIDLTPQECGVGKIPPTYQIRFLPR

CYP3A4 [3] = biological target: T3, CYP3A4 (Homo sapiens, UniProt P08684); assay: Induction of CYP3A4 in human hepatocytes at 1000 uM after 72 hrs relative to control; format: ADME, cell-based, Hepatocyte; conditions: read-out: FC
Hepatitis C virus = assay: Antiviral activity against Hepatitis C virus infected in human Huh7ET cells assessed as inhibition of viral replication after 72 hrs by luciferase reporter gene assay; format: functional, organism-based, Hepacivirus hominis; conditions: Huh-7, 72 h
PBMC = assay: Antiinflammatory activity in human PBMC assessed as inhibition of anti-CD3/CD28 antibody-induced IL-2 production treated for 1 hr before anti-CD3/CD28 antibody challenge measured after 6 hrs by immunosuppression assay; format: functional, cell-based
CYP1A2 [4] = biological target: T1, CYP1A2; assay: Induction of CYP1A2 in human hepatocytes at 2 uM after 72 hrs relative to control; format: ADME, cell-based, Hepatocyte; conditions: read-out: FC
CYP2B6 [5] = biological target: T2, CYP2B6; assay: Induction of CYP2B6 in human hepatocytes at 2 uM after 72 hr relative to control; format: ADME, cell-based, Hepatocyte; conditions: read-out: FC
CYP3A4 [6] = biological target: T3, CYP3A4; assay: Induction of CYP3A4 in human hepatocytes at 2 uM after 72 hrs relative to control; format: ADME, cell-based, Hepatocyte; conditions: read-out: FC

T3 sequence (P08684 whole entry): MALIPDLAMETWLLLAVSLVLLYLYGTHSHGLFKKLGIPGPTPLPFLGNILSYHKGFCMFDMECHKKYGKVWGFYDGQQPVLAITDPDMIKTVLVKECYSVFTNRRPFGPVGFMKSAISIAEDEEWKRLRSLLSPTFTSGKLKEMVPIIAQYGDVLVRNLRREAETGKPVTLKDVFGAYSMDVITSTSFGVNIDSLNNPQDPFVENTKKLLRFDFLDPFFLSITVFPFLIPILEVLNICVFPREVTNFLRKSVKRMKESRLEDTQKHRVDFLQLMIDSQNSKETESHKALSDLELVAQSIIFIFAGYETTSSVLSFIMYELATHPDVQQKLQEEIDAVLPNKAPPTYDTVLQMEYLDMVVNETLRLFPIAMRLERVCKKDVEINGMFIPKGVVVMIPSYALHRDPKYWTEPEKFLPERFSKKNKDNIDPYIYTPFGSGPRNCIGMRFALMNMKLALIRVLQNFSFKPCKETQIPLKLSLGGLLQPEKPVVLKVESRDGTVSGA

CCC1(c2ccccc2)C(=O)NC(=O)NC1=O [PHENOBARBITAL]
fold induction at 72 h, 1000 µM (CYP1A2 [1]): 1.67 | fold induction at 72 h, 1000 µM (CYP2B6 [2]): 9.1 | fold induction at 72 h, 1000 µM (CYP3A4 [3]): 6.73

C/C=C/C[C@@H](C)[C@@H](O)[C@H]1C(=O)N[C@@H](CC)C(=O)N(C)CC(=O)N(C)[C@@H](CC(C)C)C(=O)N[C@@H](C(C)C)C(=O)N(C)[C@@H](CC(C)C)C(=O)N[C@@H](C)C(=O)N[C@H](C)C(=O)N(C)[C@@H](CC(C)C)C(=O)N(C)[C@@H](CC(C)C)C(=O)N(C)[C@@H](C(C)C)C(=O)N1C [CYCLOSPORINE]
CC50 (Hepatitis C virus): 5.62 µM | EC50 (PBMC): 0.0031 µM

Cc1ccc2cc3c(ccc4ccccc43)c3c2c1CC3 [3-METHYLCHOLANTHRENE]
fold induction at 72 h, 2 µM (CYP1A2 [4]): 21.2 | fold induction at 72 h, 2 µM (CYP2B6 [5]): 1.33 | fold induction at 72 h, 2 µM (CYP3A4 [6]): 0.97

Reference: ChEMBL document CHEMBL1212786 (Antimicrob Agents Chemother, 2010)
